Results from article PMC11648681, “Development of machine learning models for the prediction of the skin sensitization potential of cosmetic compounds” (PeerJ, 2024).
Values joined by “and” are separate entries in the source; they are usually repeats but may differ in a detail not shown here. Identical values can stand only once. Like-named read-outs stand apart in the source and are kept apart here.

Experiments:
[1] = CCK-8 cell viability of THP-1 cells after 48 h compound treatment in HaCaT/THP-1 co-culture; assay type: cell-based, human; conditions: human
Description: (§1) The co-culture system was set up according to the following described method. […] THP-1 cells were collected, centrifuged, and re-suspended in fresh RPMI-1640 medium supplemented with 10% FBS at 2 × 10^6 cells/mL. Then cells are distributed into HaCaT-seeded 96 wells plate with 80 μL (1.6 × 10^5 cells/well).
(§2) The compounds listed in Table 1 were dissolved in DMSO to create stock solutions with a concentration of 500 mg/mL. Eleven concentrations were subsequently prepared using two-fold serial dilutions. These stock solutions were then further diluted 250-fold in RPMI-1640 + 10% FBS medium. Finally, 80 μL of the prepared solutions were added 1:1 to the treated 96-well plates and incubated for 48 h at 37 °C and 5% CO2.
(§3) After 48 h of treatment, the treated cells were collected 100 μL cells per well. The supernatant medium was added 10 μL of CCK-8 (Life-iLab, Shanghai, China) solution to each well and incubated the plate in the incubator for 2–4 h. THP-1 cell viability was determined using standard calculation methods.
(§4) The cytotoxicity of 15 test compounds listed in Table 1 was assessed using THP-1 cells across a concentration range of 1,000 to 3.9 μg/mL. Cell viability was assessed after 48 h of treatment using the CCK-8 assay.

[2] = tested on: THP-1 cells; experiment: as above; assay type: cell-based, human; conditions: for Cell viability / final concentration used (highest concentration that maintained at least 80% cell viability): 48 h
Description: as §1, §2, §3, §4

[3] = THP-1 cells in co-culture with HaCaT cells, 48 h, THP-1, individual replicate values
[4] = THP-1 cells in co-culture with HaCaT cells, 31.25 μg/mL, 48 h, THP-1, individual replicate values, read-out: Cell viability
[5] = 1.95312 μg/mL, THP-1, individual replicate values
[6] = 3.90625 μg/mL, THP-1, individual replicate values
[7] = 7.8125 μg/mL, THP-1, individual replicate values
[8] = 15.625 μg/mL, THP-1, individual replicate values
[9] = 31.25 μg/mL, THP-1, individual replicate values
[10] = 62.5 μg/mL, THP-1, individual replicate values
[11] = 125 μg/mL, THP-1, individual replicate values
[12] = 250 μg/mL, THP-1, individual replicate values
[13] = 500 μg/mL, THP-1, individual replicate values
[14] = 1000 μg/mL, THP-1, individual replicate values
[15] = 0.976563 μg/mL, THP-1, individual replicate values
[16] = 48 h, THP-1, individual replicate values

Row | SMILES | viability at 48 h, 3.90625 μg/mL [1, 3] [%] | viability at 48 h, 7.8125 μg/mL [1, 3] [%] | viability at 48 h, 15.625 μg/mL [1, 3] [%] | viability at 48 h, 31.25 μg/mL [1, 4] [%] | viability at 48 h, 62.5 μg/mL [1, 3] [%] | viability at 48 h, 125 μg/mL [1, 3] [%] | viability at 48 h, 250 μg/mL [1, 3] [%] | viability at 48 h, 500 μg/mL [1, 3] [%] | viability at 48 h, 1000 μg/mL [1, 3] [%] | Cell viability [2, 5] | Cell viability [2, 6] | Cell viability [2, 7] | Cell viability [2, 8] | Cell viability [2, 9] | Cell viability [2, 10] | Cell viability [2, 11] | Cell viability [2, 12] | Cell viability [2, 13] | Cell viability [2, 14] | Cell viability [2, 15] | also measured
1 | O=CCc1ccccc1 [phenylacetaldehyde, Phenylacetaldehyde] | 84.7 | 80.6 | 74.2 | 14.8 | 15.8 | 17 | 19.5 | 21.5 | 18.6 | 84.3308% | 77.9774% | 74.6917% | 73.3083% | 14.7368% | 15.5263% | 17.3609% | 19.4737% | 22.2782% | 20.8421% | – | viability at 48 h, 0.976563 μg/mL [1, 3]: 84.7%; viability at 48 h, 1.95312 μg/mL [1, 3]: 85.6%; final concentration used (highest concentration that maintained at least 80% cell viability) ([2]; THP-1 cells, CCK-8, single (not double) concentration): 7.8 µg/mL
2 | CC(C)O [IPA, Isopropanol] | – | – | – | – | – | – | – | – | – | 97.8095% and 92.5429% | 90.3238% and 89.219% | 92.0495% and 89.6476% | 92.1791% and 88.8381% | 92.0943% and 92.7371% | 91.3838% and 93% | 92.3943% and 110.771% | 91.0095% and 92.9524% | 91.6191% and 88.9333% | 96.9905% and 96.3619% | 106.609% and 97.981% | IC50 (cytotoxicity) ([2]; THP-1 cells, 48 h treatment, CCK-8, range 1,000 to 3.9 μg/mL): greater than 1,000 μg/mL
3 | CC(C)CCCC(C)CCCC(C)CCCCC(C)CCCC(C)CCCC(C)C (stereo not shown) [squalane, Squalane] | 85.4 | 85 | 78.7 | 89.3 | 87.1 | 98 | 83.7 | 82 | 91.2 | 117.419% | 88.2476% | 84.8% | 88.8667% | 81.4095% | – | 94.8381% | 87.1048% | 84.4381% | 95.019% | 122.038% | IC50 at 48 h ([1]; THP-1 cells in co-culture with HaCaT cells, THP-1 cells, 48 h treatment, CCK-8, range 1,000 to 3.9 μg/mL, read-out: IC50 (cytotoxicity)): > 1000 µg/mL
4 | C=CCc1ccc(O)c(OC)c1 [eugenol, Eugenol] | – | – | – | – | – | – | – | – | – | 82.8227% | 95.5106% | 87.9007% | 89.6454% | – | 83.0993% | 50.2837% | 13.5816% | 12.3688% | 8.652% and 19.4894% | 95.2766% | viability at 48 h, 0.976563 μg/mL [1, 16]: 96.1%; viability at 48 h, 1.95312 μg/mL [1, 16]: 85.9%; viability at 48 h, 3.90625 μg/mL [1, 16]: 94%; viability at 48 h, 7.8125 μg/mL [1, 16]: 89.2%; viability at 48 h, 15.625 μg/mL [1, 16]: 84%; viability at 48 h, 62.5 μg/mL [1, 16]: 96.6%; viability at 48 h, 125 μg/mL [1, 16]: 54.7%; viability at 48 h, 250 μg/mL [1, 16]: 13.4%; viability at 48 h, 500 μg/mL [1, 16]: 19.5%; viability at 48 h, 31.25 μg/mL ([1]; Cell viability): 89.2%; final concentration used (highest concentration that maintained at least 80% cell viability) ([2]; human): 31.2 µg/mL; Cell viability ([2]; human, 31.25 μg/mL): 101.56%
